We go through 4 compounds from patent US20160310613A1, “METHODS AND COMPOSITIONS FOR OVERCOMING DRUG-RESISTANCE IN CANCER BY TARGETED DELIVERY OF PRO-DRUG-NANO-POLYMERS” (priority 2015, published 2016).

Values after ≈ are worked out from the molar mass of the structure shown.

Test [1] deals with MCF-7 MDR Doxorubicin resistant cells. Nature of the test: Epi-fluorescent microscopy of doxorubicin delivery and retention.
The test system of test [2] is SKOV-3 TR resistant Ovarian cancer cells. Briefly: cells. Type of test: cell-based. The method, then: Human ovarian cancer (SKOV-3 TR) resistant cells were cultured using the same protocol described for culturing SKOV-3 TR resistant cells in Example 8 above. Cultured cells (SKOV-3 TR) were incubated with bispecific anti-Her-2 Affibody-anti-DTPA antibody at a concentration of 20 μg/ml for 24 hours at 37° C. […] After 24-48 h incubation at 37° C., viability was assessed by Trypan Blue exclusion test using CellTiter Blue® (Promega, Madison, Wis.) following the manufacturer's protocol as described above in Example 8.
SKOV-3 sensitive and SKOV-3 TR resistant Ovarian cancer cells were cultured using the same protocol described in Examples 8 and 9 above. Cultured cells were incubated with bispecific anti-Her-2 Affibody-anti-DTPA antibody.

Test [3] concerns SKOV-3 sensitive Ovarian cancer cells. Nature of the test: cells. As to conditions: Homo sapiens, SK-OV-3, read-out: IC50 value in SKOV-3 sensitive cells.
Method: (§1) Human ovarian cancer (SKOV-3) sensitive cells were grown in six well plates. Aliquots of 5000 cells/well were seeded in the cell culture treated 96 well plates and were grown for 24 hours. Cultured cells (SKOV-3) were incubated with bispecific anti-Her-2 Affibody-anti-DTPA antibody at a concentration of 20 or 40 μg/ml for 24 hours at 37° C. […] After 24 h incubation at 37° C., viability was assessed by Trypan Blue exclusion test using CellTiter Blue® (Promega, Madison, Wis.) following the manufacturer's protocol. Briefly, media was removed from plates containing cells incubated with agent-polymer conjugates. The plates were washed 2× with 200 μl of complete medium and then incubated with 50 μl of 1:50 dilution of CellTiter Blue® reagent for 2 hours. Cell viability was then evaluated by measuring the fluorescence (excitation 530 nm, emission 590 nm) using a Synergy HT multi-21 detection microplate reader (Biotek, Winooski, Vt.). Cells treated with complete media alone were used as controls to calculate the 100% cell viability and the studies were carried out in triplicates in at least 3 different assays. […] The above studies were repeated for 48 h incubation time.
The test system is the same in test [4]. As to conditions: cells pretargeted with anti-HER2/neu affibody, FIG. 7.
Method: as §1

What is called IC50 is the midpoint of a concentration-inhibition curve.

As for `COc1cccc2c1C(=O)c1c(O)c3c(c(O)c1C2=O)C[C@@](O)(C(=O)CO)C[C@@H]3O[C@H]1C[C@H](N)[C@H](O)[C@H](C)O1` [free Dox, doxorubicin], the “Doxorubicin fluorescence in cells” value in test [1] (15 μg/ml, incubated 5 h, FIG. 8A) is “nuclear sequestration”. The “Doxorubicin uptake in cells” value in test [1] (incubated 1 h, then Dox free medium 4 h, FIG. 8B) is “less Dox uptake occurred”.

As to `CC(=O)O[C@H]1C(=O)[C@@]2(C)[C@H]([C@H](OC(=O)c3ccccc3)[C@]3(O)C[C@H](OC(=O)[C@H](O)[C@@H](NC(=O)c4ccccc4)c4ccccc4)C(C)=C1C3(C)C)[C@]1(OC(C)=O)CO[C@@H]1C[C@@H]2O` [free PTXL, Paclitaxel], the IC50 in test [2] (Homo sapiens, SKOV3TR, free drug, FIG. 7) came to 0.936 µg/mL (≈ 1.1 µM); in test [3] it was 0.089 µg/mL (≈ 0.104 µM). The “IC50 in SKOV-3 TR resistant cells relative to SKOV-3 sensitive cells” value in test [2] (ratio resistant/sensitive) is on record as “about 10 times higher”.

As for “DTPA-Doxorubicin-Poly Glutamic acid [D-Dox-PGA]”, in test [1] (pretargeted with bispecific biotinylated-anti-DTPA antibody, 1 h, then Dox free media 4 h, FIG. 8C), the “Doxorubicin retention in cells” value is “more Dox is retained”.

For “DTPA-Paclitaxel-Poly Glutamic acid [D-PTXL-PGA]”, the “Amount needed to obtain 50% cell killing in SKOV-3 TR cells relative to free PTXL” value in test [2] (SKOV-3 TR cells) was 5 times less. Further, the “IC50 value in paclitaxel resistant ovarian cancer cells” value in test [2] (cells pretargeted with anti-HER2/neu affibody, FIG. 7) came to 0.069 µg/mL. In test [2] (ratio resistant/sensitive), the “Concentration needed to obtain 50% cell killing in SKOV-3 TR resistant relative to SKOV-3 sensitive cells” value is listed as 2 time more. The “IC50 value in paclitaxel sensitive ovarian cancer cells” value in test [4] came out at 0.089 µg/mL.
